How the values were obtained:
Experiment in all cases: Weeding effect in post-emergence stage
Format in all cases: in vivo
Settings in all cases: active ingredient 2000 g/ha, 3 weeks after application, fresh weight control rate
Chenopodium album = test system: Chenopodium album
Source text: (§1) The activity level criteria for plant damage (i.e., growth control rate) are as follows:
(§2) The above growth control rates are fresh weight control rates.
(§3) Experiment on weeding effect in post-emergence stage: monocotyledonous and dicotyledonous weed seeds and major crop seeds (wheat, corn, rice, soybean, cotton, oilseed rape, millet, sorghum) were placed in plastic pots filled with soil, then covered with 0.5-2 cm of soil, allowed to grow in a good greenhouse environment. After 2 weeks of sowing, the test plants were treated in the 2-3 leaf stage. The tested compounds of the present invention were respectively dissolved in acetone at the dosage of 2000, 1000, 500, 250, 125 g/ha, then added with Tween 80 and 1.5 liter/ha of emulsifiable concentrate of methyl oleate as synergist, diluted with a certain amount of water to obtain a solution with a certain concentration, and sprayed with a spray tower onto the plants. After the application, the plants were cultured for 3 weeks in the greenhouse, and then the experimental results were listed in Table 1.

Descurainia sophia = test system: Descurainia sophia
Source text: as §1, §2, §3

Abutilon theophrasti = test system: Abutilon theophrasti
Source text: as §1, §2, §3

[1] = test system: Amaranthus retroflexus L.
Source text: as §1, §2, §3

COc1ccc(-c2nccc(C(=O)Nc3nnnn3C)c2Cl)c(C)c1 [Compound 1-104]
Weeding effect, activity level (growth control rate), Chenopodium album (Chenopodium album): 5 (Level 5: growth control rate is above 85%) | Weeding effect, activity level (growth control rate), Descurainia sophia (Descurainia sophia): 5 (Level 5: growth control rate is above 85%) | Weeding effect, activity level (growth control rate), Abutilon theophrasti (Abutilon theophrasti): 5 (Level 5: growth control rate is above 85%) | Weeding effect, activity level (growth control rate), Amaranthus retroflexus L. [1]: 5 (Level 5: growth control rate is above 85%)

COCc1c(C(=O)Nc2nnnn2C)ccnc1-c1ccc(F)cc1 [Compound 1-214]
Weeding effect, activity level (growth control rate), Chenopodium album (Chenopodium album): 5 (Level 5: growth control rate is above 85%) | Weeding effect, activity level (growth control rate), Descurainia sophia (Descurainia sophia): 5 (Level 5: growth control rate is above 85%) | Weeding effect, activity level (growth control rate), Abutilon theophrasti (Abutilon theophrasti): 5 (Level 5: growth control rate is above 85%) | Weeding effect, activity level (growth control rate), Amaranthus retroflexus L. [1]: 5 (Level 5: growth control rate is above 85%)

Cn1nnnc1NC(=O)c1ccnc(-c2ccc(C=O)s2)c1Cl [Compound 1-190]
Weeding effect, activity level (growth control rate), Chenopodium album (Chenopodium album): 5 (Level 5: growth control rate is above 85%) | Weeding effect, activity level (growth control rate), Descurainia sophia (Descurainia sophia): 5 (Level 5: growth control rate is above 85%) | Weeding effect, activity level (growth control rate), Abutilon theophrasti (Abutilon theophrasti): 5 (Level 5: growth control rate is above 85%) | Weeding effect, activity level (growth control rate), Amaranthus retroflexus L. [1]: 5 (Level 5: growth control rate is above 85%)

CSc1c(C(=O)Nc2nnnn2C)ccnc1-c1ccc(F)cc1 [Compound 1-203]
Weeding effect, activity level (growth control rate), Chenopodium album (Chenopodium album): 5 (Level 5: growth control rate is above 85%) | Weeding effect, activity level (growth control rate), Descurainia sophia (Descurainia sophia): 5 (Level 5: growth control rate is above 85%) | Weeding effect, activity level (growth control rate), Abutilon theophrasti (Abutilon theophrasti): 5 (Level 5: growth control rate is above 85%) | Weeding effect, activity level (growth control rate), Amaranthus retroflexus L. [1]: 5 (Level 5: growth control rate is above 85%)

CN(C)C(=O)c1ccc(-c2nccc(C(=O)Nc3nnnn3C)c2Cl)cc1 [Compound 1-1925]
Weeding effect, activity level (growth control rate), Chenopodium album (Chenopodium album): 5 (Level 5: growth control rate is above 85%) | Weeding effect, activity level (growth control rate), Descurainia sophia (Descurainia sophia): 5 (Level 5: growth control rate is above 85%) | Weeding effect, activity level (growth control rate), Abutilon theophrasti (Abutilon theophrasti): 5 (Level 5: growth control rate is above 85%) | Weeding effect, activity level (growth control rate), Amaranthus retroflexus L. [1]: 5 (Level 5: growth control rate is above 85%)

CC(C)=NOc1c(C(=O)Nc2nnnn2C)ccnc1-c1ccc(F)cc1 [Compound 1-209]
Weeding effect, activity level (growth control rate), Chenopodium album (Chenopodium album): 5 (Level 5: growth control rate is above 85%) | Weeding effect, activity level (growth control rate), Descurainia sophia (Descurainia sophia): 5 (Level 5: growth control rate is above 85%) | Weeding effect, activity level (growth control rate), Abutilon theophrasti (Abutilon theophrasti): 5 (Level 5: growth control rate is above 85%) | Weeding effect, activity level (growth control rate), Amaranthus retroflexus L. [1]: 5 (Level 5: growth control rate is above 85%)

Cn1nnnc1NC(=O)c1ccnc(-c2ccccc2Oc2ccccc2)c1Cl [Compound 1-57]
Weeding effect, activity level (growth control rate), Chenopodium album (Chenopodium album): 5 (Level 5: growth control rate is above 85%) | Weeding effect, activity level (growth control rate), Descurainia sophia (Descurainia sophia): 5 (Level 5: growth control rate is above 85%) | Weeding effect, activity level (growth control rate), Abutilon theophrasti (Abutilon theophrasti): 5 (Level 5: growth control rate is above 85%) | Weeding effect, activity level (growth control rate), Amaranthus retroflexus L. [1]: 5 (Level 5: growth control rate is above 85%)

Cn1nnnc1NC(=O)c1ccnc(-c2ccc(OCc3ccccc3)cc2F)c1Cl [Compound 1-106]
Weeding effect, activity level (growth control rate), Chenopodium album (Chenopodium album): 5 (Level 5: growth control rate is above 85%) | Weeding effect, activity level (growth control rate), Descurainia sophia (Descurainia sophia): 5 (Level 5: growth control rate is above 85%) | Weeding effect, activity level (growth control rate), Abutilon theophrasti (Abutilon theophrasti): 5 (Level 5: growth control rate is above 85%) | Weeding effect, activity level (growth control rate), Amaranthus retroflexus L. [1]: 5 (Level 5: growth control rate is above 85%)

Cn1nnnc1NC(=O)c1ccnc(-c2ccccc2)c1Cl [Compound 1-8]
Weeding effect, activity level (growth control rate), Chenopodium album (Chenopodium album): 5 (Level 5: growth control rate is above 85%) | Weeding effect, activity level (growth control rate), Descurainia sophia (Descurainia sophia): 5 (Level 5: growth control rate is above 85%) | Weeding effect, activity level (growth control rate), Abutilon theophrasti (Abutilon theophrasti): 5 (Level 5: growth control rate is above 85%) | Weeding effect, activity level (growth control rate), Amaranthus retroflexus L. [1]: 5 (Level 5: growth control rate is above 85%)

Cn1nnnc1NC(=O)c1ccnc(-c2ccc(C#N)nn2)c1Cl [Compound 1-155]
Weeding effect, activity level (growth control rate), Chenopodium album (Chenopodium album): 5 (Level 5: growth control rate is above 85%) | Weeding effect, activity level (growth control rate), Descurainia sophia (Descurainia sophia): 5 (Level 5: growth control rate is above 85%) | Weeding effect, activity level (growth control rate), Abutilon theophrasti (Abutilon theophrasti): 5 (Level 5: growth control rate is above 85%) | Weeding effect, activity level (growth control rate), Amaranthus retroflexus L. [1]: 5 (Level 5: growth control rate is above 85%)

Cn1nnnc1NC(=O)c1ccnc(-c2ccccc2CBr)c1Cl [Compound 1-23]
Weeding effect, activity level (growth control rate), Chenopodium album (Chenopodium album): 5 (Level 5: growth control rate is above 85%) | Weeding effect, activity level (growth control rate), Descurainia sophia (Descurainia sophia): 5 (Level 5: growth control rate is above 85%) | Weeding effect, activity level (growth control rate), Abutilon theophrasti (Abutilon theophrasti): 5 (Level 5: growth control rate is above 85%) | Weeding effect, activity level (growth control rate), Amaranthus retroflexus L. [1]: 5 (Level 5: growth control rate is above 85%)

Cn1nnnc1NC(=O)c1ccnc(-c2ccnn2C2CCCCO2)c1Cl (stereo not drawn) [Compound 1-182]
Weeding effect, activity level (growth control rate), Chenopodium album (Chenopodium album): 5 (Level 5: growth control rate is above 85%) | Weeding effect, activity level (growth control rate), Descurainia sophia (Descurainia sophia): 5 (Level 5: growth control rate is above 85%) | Weeding effect, activity level (growth control rate), Abutilon theophrasti (Abutilon theophrasti): 5 (Level 5: growth control rate is above 85%) | Weeding effect, activity level (growth control rate), Amaranthus retroflexus L. [1]: 5 (Level 5: growth control rate is above 85%)

Cn1nnnc1NC(=O)c1ccnc(-c2ccncc2)c1Cl [Compound 1-147]
Weeding effect, activity level (growth control rate), Chenopodium album (Chenopodium album): 5 (Level 5: growth control rate is above 85%) | Weeding effect, activity level (growth control rate), Descurainia sophia (Descurainia sophia): 5 (Level 5: growth control rate is above 85%) | Weeding effect, activity level (growth control rate), Abutilon theophrasti (Abutilon theophrasti): 5 (Level 5: growth control rate is above 85%) | Weeding effect, activity level (growth control rate), Amaranthus retroflexus L. [1]: 5 (Level 5: growth control rate is above 85%)

Cn1nnnc1NC(=O)c1ccnc(-c2cccc(F)c2)c1Cl [Compound 1-16]
Weeding effect, activity level (growth control rate), Chenopodium album (Chenopodium album): 5 (Level 5: growth control rate is above 85%) | Weeding effect, activity level (growth control rate), Descurainia sophia (Descurainia sophia): 5 (Level 5: growth control rate is above 85%) | Weeding effect, activity level (growth control rate), Abutilon theophrasti (Abutilon theophrasti): 5 (Level 5: growth control rate is above 85%) | Weeding effect, activity level (growth control rate), Amaranthus retroflexus L. [1]: 5 (Level 5: growth control rate is above 85%)

CCOc1ccc(-c2nccc(C(=O)Nc3nnnn3C)c2Cl)cn1 [Compound 1-144]
Weeding effect, activity level (growth control rate), Chenopodium album (Chenopodium album): 5 (Level 5: growth control rate is above 85%) | Weeding effect, activity level (growth control rate), Descurainia sophia (Descurainia sophia): 5 (Level 5: growth control rate is above 85%) | Weeding effect, activity level (growth control rate), Abutilon theophrasti (Abutilon theophrasti): 5 (Level 5: growth control rate is above 85%) | Weeding effect, activity level (growth control rate), Amaranthus retroflexus L. [1]: 5 (Level 5: growth control rate is above 85%)

Cn1nnnc1NC(=O)c1ccnc(-c2cc(F)cc(Cl)c2)c1Cl [Compound 1-90]
Weeding effect, activity level (growth control rate), Chenopodium album (Chenopodium album): 5 (Level 5: growth control rate is above 85%) | Weeding effect, activity level (growth control rate), Descurainia sophia (Descurainia sophia): 5 (Level 5: growth control rate is above 85%) | Weeding effect, activity level (growth control rate), Abutilon theophrasti (Abutilon theophrasti): 5 (Level 5: growth control rate is above 85%) | Weeding effect, activity level (growth control rate), Amaranthus retroflexus L. [1]: 5 (Level 5: growth control rate is above 85%)

COc1ccc(-c2nccc(C(=O)Nc3nnnn3C)c2Cl)cc1 [Compound 1-30]
Weeding effect, activity level (growth control rate), Chenopodium album (Chenopodium album): 5 (Level 5: growth control rate is above 85%) | Weeding effect, activity level (growth control rate), Descurainia sophia (Descurainia sophia): 5 (Level 5: growth control rate is above 85%) | Weeding effect, activity level (growth control rate), Abutilon theophrasti (Abutilon theophrasti): 5 (Level 5: growth control rate is above 85%) | Weeding effect, activity level (growth control rate), Amaranthus retroflexus L. [1]: 5 (Level 5: growth control rate is above 85%)

Cn1nnnc1NC(=O)c1ccnc(-c2cncnc2)c1Cl [Compound 1-156]
Weeding effect, activity level (growth control rate), Chenopodium album (Chenopodium album): 5 (Level 5: growth control rate is above 85%) | Weeding effect, activity level (growth control rate), Descurainia sophia (Descurainia sophia): 5 (Level 5: growth control rate is above 85%) | Weeding effect, activity level (growth control rate), Abutilon theophrasti (Abutilon theophrasti): 5 (Level 5: growth control rate is above 85%) | Weeding effect, activity level (growth control rate), Amaranthus retroflexus L. [1]: 5 (Level 5: growth control rate is above 85%)

Cn1nnnc1NC(=O)c1ccnc(-c2cc3ccccc3o2)c1Cl [Compound 1-2010]
Weeding effect, activity level (growth control rate), Chenopodium album (Chenopodium album): 5 (Level 5: growth control rate is above 85%) | Weeding effect, activity level (growth control rate), Descurainia sophia (Descurainia sophia): 5 (Level 5: growth control rate is above 85%) | Weeding effect, activity level (growth control rate), Abutilon theophrasti (Abutilon theophrasti): 5 (Level 5: growth control rate is above 85%) | Weeding effect, activity level (growth control rate), Amaranthus retroflexus L. [1]: 5 (Level 5: growth control rate is above 85%)

COc1ccccc1-c1nccc(C(=O)Nc2nnnn2C)c1Cl [Compound 1-28]
Weeding effect, activity level (growth control rate), Chenopodium album (Chenopodium album): 5 (Level 5: growth control rate is above 85%) | Weeding effect, activity level (growth control rate), Descurainia sophia (Descurainia sophia): 5 (Level 5: growth control rate is above 85%) | Weeding effect, activity level (growth control rate), Abutilon theophrasti (Abutilon theophrasti): 5 (Level 5: growth control rate is above 85%) | Weeding effect, activity level (growth control rate), Amaranthus retroflexus L. [1]: 5 (Level 5: growth control rate is above 85%)

Cn1nnnc1NC(=O)c1ccnc(-c2cnn(Cc3ccccc3)c2)c1Cl [Compound 1-175]
Weeding effect, activity level (growth control rate), Chenopodium album (Chenopodium album): 5 (Level 5: growth control rate is above 85%) | Weeding effect, activity level (growth control rate), Descurainia sophia (Descurainia sophia): 5 (Level 5: growth control rate is above 85%) | Weeding effect, activity level (growth control rate), Abutilon theophrasti (Abutilon theophrasti): 5 (Level 5: growth control rate is above 85%) | Weeding effect, activity level (growth control rate), Amaranthus retroflexus L. [1]: 5 (Level 5: growth control rate is above 85%)

From patent publication US12497365B2, “4-pyridinyl formamide compound or derivative thereof, preparation method therefor, herbicidal composition and use thereof” (Qingdao Kingagroot Chemical Compound Co., Ltd., priority 2019, dated 2025)
